Measurements from patent US10821152B2, “Methods, agents and compositions for treatment of inflammatory conditions” (Betanien Hospital, priority 2014, dated 2020).
“And” between values parts separate entries of the source, which are not always exact repeats. Equal values may be shown once. Non-standard residues stand in square brackets, D forms with d. Residues, ends and D or L forms follow the SMILES beside them. *: point of attachment. dPhe(4-NHCONH2) = NC(=O)Nc1ccc(C[C@@H](N)C(=O)O)cc1; Dihydroorotyl(S) = O=C1C[C@@H](C(=O)*)NC(=O)N1; dPhe(4-Cl) = N[C@H](Cc1ccc(Cl)cc1)C(=O)O; Phe(4-NH2) = Nc1ccc(C[C@H](N)C(=O)O)cc1; d2Nal = N[C@H](Cc1ccc2ccccc2c1)C(=O)O; Lys(iPr) = CC(C)NCCCC[C@H](N)C(=O)O; d3Pal = N[C@H](Cc1cccnc1)C(=O)O

Key:
Format in all cases: in vivo, human
[1] = tested on: patient with seropositive rheumatoid arthritis; experiment: Treatment of RA using Degarelix 40 mg weekly
Experimental: • person with seropositive rheumatoid arthritis with disease duration of 22 years. • Fulfilled ACR 2010 classification criteria for rheumatoid arthritis. Experimental Treatment • Had tried most therapies available (for example: Humira, Remicade, Enbrel, Actemra, several disease modifying anti-rheumatic drugs), previously without effect or intolerable side effects. • Offered experimental GnRH antagonist therapy, Degarelix 40 mg every week with 240 mg loading dose at baseline. Assessment of Response • Disease activity score (DAS) reduction from 7.3 to 6.7 at 2 weeks. • A DAS reduction of 0.6 units is defined as a clinical response to treatment (1). • Their ESR has decreased from 62 mm to 38 mm, with a decrease in their CRP from 87 mg/L to 67 mg/L.

[2] = tested on: patient with ankylosing spondylitis; experiment: Treatment of ankylosing spondylitis patient (BASDAI, laboratory variables); conditions: AS patient
From the text: Diagnosed with ankylosing spondylitis in 1984, HLAB27 positive, with repeated iridocyclitis. Used non-steroidal anti-inflammatory drugs previously. They were offered the TNF-alpha inhibitor Golilimumab in 2010. Their disease activity score was 8.9 in October 2010 (see below for explanation of disease activity score) on initiating Golilimumab; by the June 2012 this score had reduced to 6.6, but by May 2013 the effect had worn off and their score was 7.6. May 2013, they initiated Enbrel treatment, but their disease activity increased from 7.6 to 8.3. Due to their poor response to TNF-alpha therapy, they were offered the GnRH antagonist Degarelix in September 2014.
Disease activity in ankylosing spondylitis is measured by the BASDAI (Bath Ankylosing Spondylitis Disease Activity Index1), has been extensively validated in clinical trials, 2, 3 and is one of the most commonly used outcome measures in clinical trials. This is a componsite index that evaluates fatigue, axial and peripheral pain, stiffness and enthesopathy. Their BASDAI was at 8.7 at baseline. In September 2014 they received their first dose of Degarelix 240 mg sc. By 2 weeks, their BASDAI had reduced to 6.8, and by 6 weeks it had reduced to 5.8. This is the lowest BASDAI score they have ever had since we first started using this method of assessment 4 years ago in 2010. Their morning stiffness lasted 4 hours at baseline, by 6 weeks their morning stiffness had reduced to 2 hours. They had their second dose of Degarelix 80 mg s.c in October 2014. Lumbar flexion and maximum arm abduction were increased after 6 weeks of treatment.
Response to therapy in clinical practice is defined as improvement of 2 units or 50% on a 0-10 scale of the BASDAI, and expert opinion that the treatment should be continued. Their reduction by 6 weeks was 2.9 units, and 7.1 units with an 82% BASDAI score improvement by 9 weeks, and we shall continue treatment. A BASDAI 50% improvement is defined as a major clinical response. […] For comparison, approximately 50-60% of patients achieve a BASDAI 50 by 12 weeks on TNF inhibitors (4). Their ESR has decreased from 46 mm to 23 mm, which is their lowest ESR reading in 19 years. […] By 9 weeks of GnRH antagonist therapy, their kidney function has normalized, and fasting glucose reduced from 7.4 to 6.5 mmol/L. By 3 months, the effect on their ankylosing spondylitis remained, creatinine was at 98 umol/L, with a glomerular filtration rate of 66 ml/min/1.73 m2 in December 2014.

[3] = tested on: patient with systemic sclerosis; experiment: Treatment of systemic sclerosis; conditions: SSc patient
From the text: • person, diagnosed with systemic sclerosis • Fulfilled the 2013 EULAR/ACR classification criteria for systemic sclerosisl. • Diagnosis based upon Raynauds phenomenon, positive ANA, high titre anti-Scl 70 antibodies, marked skin changes typical of scleroderma, and esophageal dysmotility. • Previously tried Cyclophosphamide and Mycophenolate Mofetil. • Progressive disease and worsening scleroderma skin features, despite therapy. • Rapid progressive cardiac disease, verified by biopsy.
Experimental Treatment • 5th December 2014 received first dose of Degarelix 240 mg sc. • 9th January 2015 received second dose of Degarelix 80 mg sc.
[…] They are important factors in patients' evaluations of quality of life2. Their precise objective evaluation can be included in randomized controlled trials3. Their pathogenesis is unclear. Histologically, there is a plug-like hyperkeratosis with parakeratosis, homogenized collagen fibers and perivascular mononuclear cell infiltration4.

SMILES: CC(=O)N[C@H](Cc1ccc2ccccc2c1)C(=O)N[C@H](Cc1ccc(Cl)cc1)C(=O)N[C@H](Cc1cccnc1)C(=O)N[C@@H](CO)C(=O)N[C@@H](Cc1ccc(NC(=O)[C@@H]2CC(=O)NC(=O)N2)cc1)C(=O)N[C@H](Cc1ccc(NC(N)=O)cc1)C(=O)N[C@@H](CC(C)C)C(=O)N[C@@H](CCCCNC(C)C)C(=O)N1CCC[C@H]1C(=O)N[C@H](C)C(N)=O [Degarelix] (Ac-[d2Nal][dPhe(4-Cl)][d3Pal]S[Phe(4-NH2)](Dihydroorotyl(S))[dPhe(4-NHCONH2)]L[Lys(iPr)]P[dA]-NH2)
- Disease activity score (DAS) ([1]; at 2 weeks, 240 mg loading, 40 mg weekly): 6.7
- CRP ([1]; baseline): 87 mg/L
- Disease activity score (DAS) ([1]; baseline): 7.3
- ESR ([1]; baseline): 62 mm
- CRP ([1]; on Degarelix 40 mg weekly): 67 mg/L
- ESR ([1]; on Degarelix 40 mg weekly): 38 mm
- ASAS response (at least 80% improvement) [2]: achieved an ASAS 80
- CRP ([2]; 10.09.14 (baseline)): <5
- Creatinine (60-105 umol/L) ([2]; 10.09.14 (baseline)): 112↑ umol/L
- ESR <20 mm ([2]; 10.09.14 (baseline)): 46 mm and 46↑ mm
- Glomerular filtration rate (>60 ml/min/1.73 m^2) ([2]; 10.09.14 (baseline)): 56↓ ml/min/1.73 m^2
- Glucose fasting (4.0-6.0 mmol/L) ([2]; 10.09.14 (baseline)): 7.4 mmol/L
- Urate (230-480 umol/L) ([2]; 10.09.14 (baseline)): 515 umol/L and 515↑ umol/L
- CRP ([2]; 10.11.14): <5
- Creatinine (60-105 umol/L) ([2]; 10.11.14): 99 µmol/L
- Glomerular filtration rate (>60 ml/min/1.73 m^2) ([2]; 10.11.14): 65 ml/min/1.73 m^2
- Urate (230-480 umol/L) ([2]; 10.11.14): 426 µmol/L
- Glucose fasting (4.0-6.0 mmol/L) ([2]; 10.11.14 (by 9 weeks)): 6.5 mmol/L
- CRP ([2]; 24.09.14): <5
- Creatinine (60-105 umol/L) ([2]; 24.09.14): 114↑ umol/L
- ESR <20 mm ([2]; 24.09.14): 31↑ mm
- Glomerular filtration rate (>60 ml/min/1.73 m^2) ([2]; 24.09.14): 55↓ ml/min/1.73 m^2
- Urate (230-480 umol/L) ([2]; 24.09.14): 512↑ umol/L
- CRP ([2]; 27.10.14): <5
- Creatinine (60-105 umol/L) ([2]; 27.10.14): 111↑ umol/L
- ESR <20 mm ([2]; 27.10.14): 28↑ mm
- Glomerular filtration rate (>60 ml/min/1.73 m^2) ([2]; 27.10.14): 56↓ ml/min/1.73 m^2
- Urate (230-480 umol/L) ([2]; 27.10.14): 495↑ umol/L
- Lumbar flexion and maximum arm abduction ([2]; after 6 weeks of treatment): increased
- BASDAI ([2]; baseline): 8.7
- morning stiffness ([2]; baseline): 4 h
- BASDAI ([2]; by 2 weeks): 6.8
- creatinine ([2]; by 3 months (December 2014)): 98 µmol/L
- glomerular filtration rate ([2]; by 3 months (December 2014)): 66 ml/min/1.73 m2
- BASDAI ([2]; by 6 weeks): 5.8
- BASDAI reduction ([2]; by 6 weeks): 2.9 units
- morning stiffness ([2]; by 6 weeks): 2 h
- BASDAI reduction ([2]; by 9 weeks): 7.1 units
- BASDAI score improvement ([2]; by 9 weeks): 82%
- kidney function ([2]; by 9 weeks): normalized
- Digital tip ulcers/pitting scars ([3]; 5 weeks): 2
- Modified Rodnan Skin Score ([3]; 5 weeks): 40
- Sleep ([3]; 5 weeks): 5 hrs/night
- VAS Fatigue ([3]; 5 weeks): 75
- VAS Fingertip pain/pitting scars/ulcers ([3]; 5 weeks): 40
- VAS Gastrointestinal Symptoms ([3]; 5 weeks): 80
- VAS Global ([3]; 5 weeks): 40
- VAS Lung/dyspnea ([3]; 5 weeks): 80
- VAS Pain ([3]; 5 weeks): 10
- VAS Raynauds/vascular ([3]; 5 weeks): 40
- Digital tip ulcers/pitting scars ([3]; 6 weeks): 2
- Modified Rodnan Skin Score ([3]; 6 weeks): 40
- Sleep ([3]; 6 weeks): 5.5 hrs/night
- VAS Fatigue ([3]; 6 weeks): 60
- VAS Fingertip pain/pitting scars/ulcers ([3]; 6 weeks): 30
- VAS Gastrointestinal Symptoms ([3]; 6 weeks): 60
- VAS Global ([3]; 6 weeks): 40
- VAS Lung/dyspnea ([3]; 6 weeks): 50
- VAS Pain ([3]; 6 weeks): 10
- VAS Raynauds/vascular ([3]; 6 weeks): 30
- fingertip pain score (0-100 mm) ([3]; after 6 weeks of treatment (FIG. 12)): 30
- Digital tip ulcers/pitting scars ([3]; baseline 5.12.14): 5
- HAQ DI ([3]; baseline 5.12.14): 1.88
- Modified Rodnan Skin Score ([3]; baseline 5.12.14): 42
- Sleep ([3]; baseline 5.12.14): 2 hrs/night
- VAS Fatigue ([3]; baseline 5.12.14): 100
- VAS Fingertip pain/pitting scars/ulcers ([3]; baseline 5.12.14): 100
- VAS Gastrointestinal Symptoms ([3]; baseline 5.12.14): 100
- VAS Global ([3]; baseline 5.12.14): 100
- VAS Lung/dyspnea ([3]; baseline 5.12.14): 100
- VAS Pain ([3]; baseline 5.12.14): 100
- VAS Raynauds/vascular ([3]; baseline 5.12.14): 100
- fingertip pain score (0-100 mm) ([3]; baseline prior to treatment (FIG. 11)): 100 mm
